According to patent US9873696B2, “Neprilysin inhibitors” (THERAVANCE BIOPHARMA R&D IP, LLC, priority 2010, dated 2018):

What follows are molecules tested against T1, human NEP (Homo sapiens, UniProt P08473) (assay: In vitro enzyme inhibition assay at human NEP (Assay 1)). Conditions: recombinant enzyme, fluorogenic peptide substrate, 37° C.
T1 construct: purchased R&D Systems, Minneapolis, Minn; 1182-ZN
Type: biochemical
Method in brief: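 Recombinant enzyme preincubated with compound 30 min at 37 °C, then 10 μM Mca-D-Arg-Arg-Leu-Dap-(Dnp)-OH added in 50 mM HEPES pH 7.5, 100 mM NaCl, 0.01% Tween-20, 10 μM ZnSO4; stopped after 20 min with acetic acid. Fluorescence read at 320/405 nm; Ki from nonlinear fit of v=v0/[1+(I/K′)], reported as pKi.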

T1 sequence (P08473 whole entry): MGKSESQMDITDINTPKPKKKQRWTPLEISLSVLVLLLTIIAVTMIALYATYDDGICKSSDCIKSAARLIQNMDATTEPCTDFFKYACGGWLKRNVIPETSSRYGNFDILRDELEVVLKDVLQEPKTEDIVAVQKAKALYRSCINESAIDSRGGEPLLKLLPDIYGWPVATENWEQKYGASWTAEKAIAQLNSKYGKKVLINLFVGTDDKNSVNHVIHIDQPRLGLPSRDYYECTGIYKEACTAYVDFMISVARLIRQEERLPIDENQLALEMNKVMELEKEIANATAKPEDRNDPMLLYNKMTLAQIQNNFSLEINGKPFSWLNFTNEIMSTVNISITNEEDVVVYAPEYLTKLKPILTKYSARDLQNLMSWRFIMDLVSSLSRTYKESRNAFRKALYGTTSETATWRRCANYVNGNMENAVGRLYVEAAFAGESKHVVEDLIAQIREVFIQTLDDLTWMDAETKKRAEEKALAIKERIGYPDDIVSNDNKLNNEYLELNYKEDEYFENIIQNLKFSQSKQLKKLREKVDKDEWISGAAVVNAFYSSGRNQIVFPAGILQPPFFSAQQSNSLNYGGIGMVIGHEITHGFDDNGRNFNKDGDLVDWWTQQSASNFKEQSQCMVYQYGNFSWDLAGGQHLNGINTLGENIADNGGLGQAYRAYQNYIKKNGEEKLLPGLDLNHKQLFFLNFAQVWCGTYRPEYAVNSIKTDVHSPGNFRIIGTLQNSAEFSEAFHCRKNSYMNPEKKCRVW

SMILES	Ki [nM]
O=C(NN(Cc1ccc(-c2cc(Cl)ccc2F)cc1)C[C@@H](O)C(=O)O)c1cc(-c2cccnc2)on1 [Example 8-34, (R)-3-[N-(5′-Chloro-2′-fluoro-biphenyl-4-ylmethyl)-N′-(5-pyridin-3-yl-isoxazole-3-carbonyl)-hydrazino]-2-hydroxy-propionic acid]	1.26 to 10
CN(C)C(=O)c1cc(C(=O)NN(Cc2ccc(-c3cc(Cl)ccc3F)cc2)C[C@@H](O)C(=O)O)[nH]n1 [Example 8-35, (R)-3-[N-(5′-Chloro-2′-fluoro-biphenyl-4-ylmethyl)-N′-(5-dimethylcarbamoyl-2H-pyrazole-3-carbonyl)-hydrazino]-2-hydroxy-propionic acid]	≤ 1
O=C(NN(Cc1ccc(-c2cc(Cl)ccc2F)cc1)C[C@@H](O)C(=O)O)c1cc(-c2ccccn2)n[nH]1 [Example 8-36, (R)-3-[N-(5′-Chloro-2′-fluoro-biphenyl-4-ylmethyl)-N′-(5-pyridin-2-yl-2H-pyrazole-3-carbonyl)-hydrazino]-2-hydroxy-propionic acid]	≤ 1
O=C(NN(Cc1ccc(-c2cc(Cl)ccc2F)cc1)C[C@@H](O)C(=O)O)c1cc(-c2ccccc2O)n[nH]1 [Example 8-38, (R)-3-{N-(5′-Chloro-2′-fluoro-biphenyl-4-ylmethyl)-N′-[5-(2-hydroxy-phenyl)-2H-pyrazole-3-carbonyl]-hydrazino}-2-hydroxy-propionic acid]	≤ 1
COc1ccccc1-c1cc(C(=O)NN(Cc2ccc(-c3cc(Cl)ccc3F)cc2)C[C@@H](O)C(=O)O)[nH]n1 [Example 8-39, (R)-3-{N-(5′-Chloro-2′-fluoro-biphenyl-4-ylmethyl)-N′-[5-(2-methoxy-phenyl)-2H-pyrazole-3-carbonyl]-hydrazino}-2-hydroxy-propionic acid]	≤ 1
O=C(NN(Cc1ccc(-c2cc(Cl)ccc2F)cc1)C[C@@H](O)C(=O)O)c1cc(-c2cc(Cl)ccc2Cl)n[nH]1 [Example 8-41, (R)-3-{N-(5′-Chloro-2′-fluoro-biphenyl-4-ylmethyl)-N′-[5-(2,5-dichloro-phenyl)-2H-pyrazole-3-carbonyl]-hydrazino}-2-hydroxy-propionic acid]	≤ 1
CCCCc1cc(C(=O)NN(Cc2ccc(-c3cc(Cl)ccc3F)cc2)C[C@@H](O)C(=O)O)[nH]n1 [Example 8-42, (R)-3-[N′-(5-Butyl-2H-pyrazole-3-carbonyl)-N-(5′-chloro-2′-fluoro-biphenyl-4-ylmethyl)-hydrazino]-2-hydroxy-propionic acid]	≤ 1
O=C(NN(Cc1ccc(-c2cc(Cl)ccc2F)cc1)C[C@@H](O)C(=O)O)c1cc(C2CC2)n[nH]1 [Example 8-43, (R)-3-[N-(5′-Chloro-2′-fluoro-biphenyl-4-ylmethyl)-N′-(5-cyclopropyl-2H-pyrazole-3-carbonyl)-hydrazino]-2-hydroxy-propionic acid]	≤ 1
COc1ccccc1C(=O)Nc1cc(C(=O)NN(Cc2ccc(-c3cc(Cl)ccc3F)cc2)C[C@@H](O)C(=O)O)[nH]n1 [Example 8-49, (R)-3-{N-(5′-Chloro-2′-fluoro-biphenyl-4-ylmethyl)-N′-[5-(2-methoxy-benzoylamino)-2H-pyrazole-3-carbonyl]-hydrazino}-2-hydroxy-propionic acid]	≤ 1
O=C(NN(Cc1ccc(-c2cc(Cl)ccc2F)cc1)C[C@@H](O)C(=O)O)c1cc(-c2cnccn2)[nH]n1 [Example 8-50, (R)-3-[N-(5′-Chloro-2′-fluoro-biphenyl-4-ylmethyl)-N′-(5-pyrazin-2-yl-1H-pyrazole-3-carbonyl)-hydrazino]-2-hydroxy-propionic acid]	≤ 1
O=C(NN(Cc1ccc(-c2cc(Cl)ccc2F)cc1)C[C@@H](O)C(=O)O)c1cc(O)n(-c2ccccn2)n1 [Example 8-51, (R)-3-[N-(5′-Chloro-2′-fluoro-biphenyl-4-ylmethyl)-N′-(5-hydroxy-1-pyridin-2-yl-1H-pyrazole-3-carbonyl)-hydrazino]-2-hydroxy-propionic acid]	1.26 to 10
O=C(NN(Cc1ccc(-c2cc(Cl)ccc2F)cc1)C[C@@H](O)C(=O)O)c1cc(O)n(-c2ccccc2F)n1 [Example 8-52, (R)-3-{N-(5′-Chloro-2′-fluoro-biphenyl-4-ylmethyl)-N′-[1-(2-fluoro-phenyl)-5-hydroxy-1H-pyrazole-3-carbonyl]-hydrazino}-2-hydroxy-propionic acid]	1.26 to 10
O=C(O)Cn1nc(C(=O)NN(Cc2ccc(-c3cc(Cl)ccc3F)cc2)C[C@@H](O)C(=O)O)cc1C1CC1 [Example 8-53, (R)-3-[N′-(1-Carboxymethyl-5-cyclopropyl-1H-pyrazole-3-carbonyl)-N-(5′-chloro-2′-fluoro-biphenyl-4-ylmethyl)-hydrazino]-2-hydroxy-propionic acid]	1.26 to 10
CC(C)c1cc(C(=O)NN(Cc2ccc(-c3cc(Cl)ccc3F)cc2)C[C@@H](O)C(=O)O)nn1CC(=O)O [Example 8-54, (R)-3-[N′-(1-Carboxymethyl-5-isopropyl-1H-pyrazole-3-carbonyl)-N-(5′-chloro-2′-fluoro-biphenyl-4-ylmethyl)-hydrazino]-2-hydroxy-propionic acid]	1.26 to 10
CCCCc1cc(C(=O)NN(Cc2ccc(-c3cc(Cl)ccc3F)cc2)C[C@@H](O)C(=O)O)nn1CC(=O)O [Example 8-55, (R)-3-[N′-(5-Butyl-1-carboxymethyl-1H-pyrazole-3-carbonyl)-N-(5′-chloro-2′-fluoro-biphenyl-4-ylmethyl)-hydrazino]-2-hydroxy-propionic acid]	1.26 to 10

Continued, values first:

Ki [nM]	SMILES
12.6 to 100	O=C(NN(Cc1ccc(-c2cc(F)cc(F)c2)cc1)C[C@H](O)C(=O)O)c1cc(O)no1 [Example 8-26, (S)-3-[N-(3′,5′-Difluoro-biphenyl-4-ylmethyl)-N′-(3-hydroxy-isoxazole-5-carbonyl)-hydrazino]-2-hydroxy-propionic acid]
≤ 1	O=C(NN(Cc1ccc(-c2cc(O)cc(Cl)c2)cc1)C[C@H](O)C(=O)O)c1cc(O)no1 [Example 8-27, (S)-3-[N-(5′-Chloro-3′-hydroxy-biphenyl-4-ylmethyl)-N′-(3-hydroxy-isoxazole-5-carbonyl)-hydrazino]-2-hydroxy-propionic acid]
12.6 to 100	Cc1c(Cl)cc(Cl)cc1-c1ccc(CN(C[C@H](O)C(=O)O)NC(=O)c2cc(O)no2)cc1 [Example 8-28, (S)-3-[N-(3′,5′-Dichloro-2′-methyl-biphenyl-4-ylmethyl)-N′-(3-hydroxy-isoxazole-5-carbonyl)-hydrazino]-2-hydroxy-propionic acid]
1.26 to 10	O=C(NN(Cc1ccc(-c2cc(Cl)ccc2F)cc1)C[C@@H](O)C(=O)O)c1cc(Cl)no1 [Example 8-29, (R)-3-[N-(5′-Chloro-2′-fluoro-biphenyl-4-ylmethyl)-N′-(3-chloro-isoxazole-5-carbonyl)-hydrazino]-2-hydroxy-propionic acid]
≤ 1	CC(C)Cc1cc(C(=O)NN(Cc2ccc(-c3cc(Cl)ccc3F)cc2)C[C@@H](O)C(=O)O)on1 [Example 8-30, (R)-3-[N-(5′-Chloro-2′-fluoro-biphenyl-4-ylmethyl)-N′-(3-isobutyl-isoxazole-5-carbonyl)-hydrazino]-2-hydroxy-propionic acid]
≤ 1	CCCc1cc(C(=O)NN(Cc2ccc(-c3cc(Cl)ccc3F)cc2)C[C@@H](O)C(=O)O)on1 [Example 8-31, (R)-3-[N-(5′-Chloro-2′-fluoro-biphenyl-4-ylmethyl)-N′-(3-propyl-isoxazole-5-carbonyl)-hydrazino]-2-hydroxy-propionic acid]
≤ 1	CC(C)c1cc(C(=O)NN(Cc2ccc(-c3cc(Cl)ccc3F)cc2)C[C@@H](O)C(=O)O)on1 [Example 8-32, (R)-3-[N-(5′-Chloro-2′-fluoro-biphenyl-4-ylmethyl)-N′-(3-isopropyl-isoxazole-5-carbonyl)-hydrazino]-2-hydroxy-propionic acid]
1.26 to 10	CC(C)(C)c1cc(C(=O)NN(Cc2ccc(-c3cc(Cl)ccc3F)cc2)C[C@@H](O)C(=O)O)on1 [Example 8-33, (R)-3-[N′-(3-tert-Butyl-isoxazole-5-carbonyl)-N-(5′-chloro-2′-fluoro-biphenyl-4-ylmethyl)-hydrazino]-2-hydroxy-propionic acid]
≤ 1	CC(C)(O)c1cc(C(=O)NN(Cc2ccc(-c3cc(Cl)ccc3F)cc2)C[C@@H](O)C(=O)O)[nH]n1 [Example 8-40, (R)-3-{N-(5′-Chloro-2′-fluoro-biphenyl-4-ylmethyl)-N′-[5-(1-hydroxy-1-methyl-ethyl)-2H-pyrazole-3-carbonyl]-hydrazino}-2-hydroxy-propionic acid]
≤ 1	CC(C)c1cc(C(=O)NN(Cc2ccc(-c3cc(Cl)ccc3F)cc2)C[C@@H](O)C(=O)O)[nH]n1 [Example 8-44, (R)-3-[N-(5′-Chloro-2′-fluoro-biphenyl-4-ylmethyl)-N′-(5-isopropyl-2H-pyrazole-3-carbonyl)-hydrazino]-2-hydroxy-propionic acid]
≤ 1	CC(=O)c1cc(C(=O)NN(Cc2ccc(-c3cc(Cl)ccc3F)cc2)C[C@H](O)C(=O)O)[nH]n1 [Example 8-45, (S)-3-[N′-(5-Acetyl-2H-pyrazole-3-carbonyl)-N-(5′-chloro-2′-fluoro-biphenyl-4-ylmethyl)-hydrazino]-2-hydroxy-propionic acid]
1.26 to 10	CC(=O)c1cc(C(=O)NN(Cc2ccc(-c3cc(Cl)ccc3C)cc2)C[C@H](O)C(=O)O)[nH]n1 [Example 8-47, (S)-3-[N′-(5-Acetyl-2H-pyrazole-3-carbonyl)-N-(5′-chloro-2′-methyl-biphenyl-4-ylmethyl)-hydrazino]-2-hydroxy-propionic acid]
1.26 to 10	CC(=O)c1cc(C(=O)NN(Cc2ccc(-c3cc(Cl)ccc3Cl)cc2)C[C@H](O)C(=O)O)[nH]n1 [Example 8-48, (S)-3-[N′-(5-Acetyl-2H-pyrazole-3-carbonyl)-N-(2′,5′-dichloro-biphenyl-4-ylmethyl)-hydrazino]-2-hydroxy-propionic acid]
